Experimental data as given in patent US4877893A, “Process for the preparation of 2-(O-alkyl)-2-thio-1,3,2-oxathiophospholanes” (priority 1987, dated 1989).

Key:
Alternaria sp. = assay: Fungicidal effect on paprika seeds on agar, colony diameter; format: cell-based; details: 5th day, control 36.62
Description: (§1) The test is carried out on paprika seeds placed on agar nutrient medium and impregnated with phytopathogenic Fungi (Alternaria sp., Penicillium sp., Sclerotinia sp.). The paprika seeds are treated with various doses of 2-(0-2'-chloroethyl)-2-thio-1,3,2-oxathiophospholane (Compound No. 1 of Table I) and the known fungicidal agent Aliette, respectively.
(§2) The concentration data relate to the active ingredient. Treatment is carried out by using a 20 EC prepared according to Example 27. Evaluation is carried out on the 5th day after treatment by measuring the diameter of the Fungi colonies.

Penicillium sp. = assay: as above; format: cell-based; details: 5th day, control 23.35
Description: as §1, §2

Sclerotinia sp. = assay: as above; format: cell-based; details: 5th day, control 41.50
Description: as §1, §2

Sclerotinia sclerotinia = assay: Fungicidal effect on infected agar nutrient media, colony diameter; format: cell-based; details: 3rd day after treatment, untreated control 41.7
Description: Agar nutrient media (Diameter 70 MM, thickness 10 mm) infected by Sclerotonia sclerotinia suspension are treated with 20 EC formulations prepared according to Example 27 and comprising 1, 10, 100 and 1000 ppm, respectively of the active ingredient of the Formula I. The fungicidal effect of the compositions is evaluated on the 3rd day after treatment by measuring the diameter of the Fungi colonies.

Penicillium cyclopium = assay: as above; format: cell-based; details: 7th day after treatment, untreated 26.5
Method in brief: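 Agar media (70 mm diameter, 10 mm thick) infected with Penicillium cyclopium were treated with EC formulations at 1, 10, 100 and 1000 ppm active ingredient. Fungal colony diameter was measured on day 7 after treatment.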

Alternaria tenuis = assay: as above; format: cell-based; details: 5th day after treatment, untreated control 36.8
Method in brief: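 Agar media (70 mm diameter, 10 mm thick) infected with Alternaria tenuis, treated with EC formulations at 1, 10, 100 and 1000 ppm active ingredient. Fungicidal effect read on day 5 after treatment as fungal colony diameter.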

[1] = system: cotton seeds strongly infected by pathogens; assay: Seed dressing test, shoot up %; format: in vivo; details: related to untreated control = 100
Source text: (§3) In this test cotton, maize, sunflower and sugar beet seeds strongly infected by pathogens and treated with different doses of 2-(0-2'-chloroethyl)-2-thio-1,3,2-oxathiophospholane (Compound No. 1) are used. The doses amount to 50, 100 and 200 g of active ingredient, respectively. As reference seeds being either untreated or treated with Mancozeb (manganese +zinc/-ethylene bis-dithiocarbamte) 0.8 kg/t +Benomyl (1-butyl carbamoyl-benzimidazole-2-methylcarbamate) 0.5 kg/t are used.
(§4) Compound No. 1 of the present invention is formulated as 50 WP in an analogous manner to Example 31. The test is carried out in six replicates, by sowing 10 seeds in each replicate. The results are evaluated by determining the shoot up % related to the control.

[2] = system: maize seeds strongly infected by pathogens; assay: Seed dressing test, shoot up %; format: in vivo; details: related to untreated control = 100
Source text: as §3, §4

[3] = system: sugar beet seeds strongly infected by pathogens; assay: Seed dressing test, shoot up %; format: in vivo; details: related to untreated control = 100
Source text: as §3, §4

[4] = system: sunflower seeds strongly infected by pathogens; assay: Seed dressing test, shoot up %; format: in vivo; details: related to untreated control = 100
Source text: as §3, §4

[5] = system: Fusarium sp. and Alternaria sp.; assay: Soil disinfection test, shoot up %; format: in vivo, cotton; details: 1 kg of active ingredient/ha; soil disinfectant granules; untreated control = 100
Description: (§5) The soil is watered and admixed with a Fusarium sp. and Alternaria sp. suspension. In the infected soil cotton and sugar beet seeds are sown, namely 10 seeds per replicate. Eight replicates are used in the test. The soil is treated with 2-(0-2'-chloroethyl)-2-thio-1,3,2-oxathiophospholane (Compound No. 1) in a dose of 1 kg of active ingredient.ha^- 1. Treatment is carried out with soil disinfectant granules prepared in an analogous manner to Example 33. Evaluation is carried out by determining the shoot up % related to the untreated control.

[6] = system: Fusarium sp. and Alternaria sp.; assay: Soil disinfection test, shoot up %; format: in vivo, sugar beet; details: 1 kg of active ingredient/ha; soil disinfectant granules; untreated control = 100
Description: as §5

SMILES: CCO[PH](=O)O [Aliette, aluminum-tris-(O-ethyl-phosphate), reference compound]
- Diameter of Colony (MM) Alternaria (Alternaria sp.; 1 ppm): 34.05 MM
- Diameter of Colony (MM) Alternaria (Alternaria sp.; 5 ppm): 35.16 MM
- Diameter of Colony (MM) Alternaria (Alternaria sp.; 10 ppm): 29.41 MM
- Diameter of Colony (MM) Alternaria (Alternaria sp.; 50 ppm): 26.13 MM
- Diameter of Colony (MM) Alternaria (Alternaria sp.; 100 ppm): 19.16 MM
- Diameter of Colony (MM) Alternaria (Alternaria sp.; 1000 ppm): 8.92 MM
- Diameter of Colony (MM) Penicillium (Penicillium sp.; 1 ppm): 21.35 MM
- Diameter of Colony (MM) Penicillium (Penicillium sp.; 5 ppm): 20.66 MM
- Diameter of Colony (MM) Penicillium (Penicillium sp.; 10 ppm): 18.45 MM
- Diameter of Colony (MM) Penicillium (Penicillium sp.; 50 ppm): 17.63 MM
- Diameter of Colony (MM) Penicillium (Penicillium sp.; 100 ppm): 16.62 MM
- Diameter of Colony (MM) Penicillium (Penicillium sp.; 1000 ppm): 10.15 MM
- Diameter of Colony (MM) Sclerotinia (Sclerotinia sp.; 1 ppm): 40.45 MM
- Diameter of Colony (MM) Sclerotinia (Sclerotinia sp.; 5 ppm): 39.64 MM
- Diameter of Colony (MM) Sclerotinia (Sclerotinia sp.; 10 ppm): 36.44 MM
- Diameter of Colony (MM) Sclerotinia (Sclerotinia sp.; 50 ppm): 28.06 MM
- Diameter of Colony (MM) Sclerotinia (Sclerotinia sp.; 100 ppm): 22.40 MM
- Diameter of Colony (MM) Sclerotinia (Sclerotinia sp.; 1000 ppm): 6.75 MM

SMILES: S=P1(OCCCl)OCCS1 (centres unmarked) [Compound 1, 2-(O-2'-chloroethyl)-2-thio-1,3,2-oxathiophospholane]
- Diameter of colony (mm) (Sclerotinia sclerotinia; 1 ppm): 39.4 mm
- Diameter of colony (mm) (Sclerotinia sclerotinia; 10 ppm): 31.7 mm
- Diameter of colony (mm) (Sclerotinia sclerotinia; 100 ppm): 3.5 mm
- Diameter of colony (mm) (Sclerotinia sclerotinia; 1000 ppm): 0 mm
- Diameter of colony (mm) (Penicillium cyclopium; 1 ppm): 23.2 mm
- Diameter of colony (mm) (Penicillium cyclopium; 10 ppm): 20.0 mm
- Diameter of colony (mm) (Penicillium cyclopium; 100 ppm): 8.0 mm
- Diameter of colony (mm) (Penicillium cyclopium; 1000 ppm): 0 mm
- Diameter of colony (mm) (Alternaria tenuis; 1 ppm): 33.5 mm
- Diameter of colony (mm) (Alternaria tenuis; 10 ppm): 25.8 mm
- Diameter of colony (mm) (Alternaria tenuis; 100 ppm): 7.6 mm
- Diameter of colony (mm) (Alternaria tenuis; 1000 ppm): 0 mm
- Diameter of Colony (MM) Alternaria (Alternaria sp.; 1 ppm): 33.50 MM
- Diameter of Colony (MM) Alternaria (Alternaria sp.; 5 ppm): 32.25 MM
- Diameter of Colony (MM) Alternaria (Alternaria sp.; 10 ppm): 25.87 MM
- Diameter of Colony (MM) Alternaria (Alternaria sp.; 50 ppm): 16.75 MM
- Diameter of Colony (MM) Alternaria (Alternaria sp.; 100 ppm): 7.62 MM
- Diameter of Colony (MM) Alternaria (Alternaria sp.; 1000 ppm): 0 MM
- Diameter of Colony (MM) Penicillium (Penicillium sp.; 1 ppm): 22.20 MM
- Diameter of Colony (MM) Penicillium (Penicillium sp.; 5 ppm): 20.05 MM
- Diameter of Colony (MM) Penicillium (Penicillium sp.; 10 ppm): 20.05 MM
- Diameter of Colony (MM) Penicillium (Penicillium sp.; 50 ppm): 19.40 MM
- Diameter of Colony (MM) Penicillium (Penicillium sp.; 100 ppm): 8.12 MM
- Diameter of Colony (MM) Penicillium (Penicillium sp.; 1000 ppm): 0 MM
- Diameter of Colony (MM) Sclerotinia (Sclerotinia sp.; 1 ppm): 39.37 MM
- Diameter of Colony (MM) Sclerotinia (Sclerotinia sp.; 5 ppm): 40.62 MM
- Diameter of Colony (MM) Sclerotinia (Sclerotinia sp.; 10 ppm): 31.75 MM
- Diameter of Colony (MM) Sclerotinia (Sclerotinia sp.; 50 ppm): 10.62 MM
- Diameter of Colony (MM) Sclerotinia (Sclerotinia sp.; 100 ppm): 3.50 MM
- Diameter of Colony (MM) Sclerotinia (Sclerotinia sp.; 1000 ppm): 0 MM
- Shoot up % Cotton ([1]; 50 g/t): 146%
- Shoot up % Cotton ([1]; 100 g/t): 218%
- Shoot up % Cotton ([1]; 200 g/t): 255%
- Shoot up % Maize ([2]; 50 g/t): 121%
- Shoot up % Maize ([2]; 100 g/t): 133%
- Shoot up % Maize ([2]; 200 g/t): 125%
- Shoot up % Sugar beet ([3]; 50 g/t): 205%
- Shoot up % Sugar beet ([3]; 100 g/t): 312%
- Shoot up % Sugar beet ([3]; 200 g/t): 156%
- Shoot up % Sunflower ([4]; 50 g/t): 132%
- Shoot up % Sunflower ([4]; 100 g/t): 154%
- Shoot up % Sunflower ([4]; 200 g/t): 129%
- Shoot up % Cotton [5]: 239%
- Shoot up % Sugar beet [6]: 346%

SMILES: CC(C)CCOP1(=S)OCCS1 (centres unmarked) [Compound 67]
- Diameter of colony (mm) (Sclerotinia sclerotinia; 1 ppm): 36.3 mm
- Diameter of colony (mm) (Sclerotinia sclerotinia; 10 ppm): 29.6 mm
- Diameter of colony (mm) (Sclerotinia sclerotinia; 100 ppm): 3.6 mm
- Diameter of colony (mm) (Sclerotinia sclerotinia; 1000 ppm): 0 mm
- Diameter of colony (mm) (Penicillium cyclopium; 1 ppm): 25.1 mm
- Diameter of colony (mm) (Penicillium cyclopium; 10 ppm): 19.3 mm
- Diameter of colony (mm) (Penicillium cyclopium; 100 ppm): 7.0 mm
- Diameter of colony (mm) (Penicillium cyclopium; 1000 ppm): 0 mm
- Diameter of colony (mm) (Alternaria tenuis; 1 ppm): 35.4 mm
- Diameter of colony (mm) (Alternaria tenuis; 10 ppm): 23.8 mm
- Diameter of colony (mm) (Alternaria tenuis; 100 ppm): 5.3 mm
- Diameter of colony (mm) (Alternaria tenuis; 1000 ppm): 0 mm
